Assay results: patent US11066693B2, “Methods for diagnosing LHRH or hCG/LH receptor expressing tumors, cancers and neoplasias” (ESPERANCE PHARMACEUTICALS, INC., priority 2009, dated 2021)
Ends that are not written are not given here.

Experiments:
[1] = tested on: MDA-MB-231 human breast cancer cell line; assay: In vitro cytotoxicity, MTT cell viability assay; format: cell-based
Protocol: Incubations were conducted for 24 h at 37° C.

[2] = tested on: MDA-MB-4355 breast cancer cell line; conditions: read-out: Cytotoxicity evaluated as IC50 value; MDA-MB-4355, highest LHRH receptor capacity, 24 h at 37° C., MTT
Protocol: (§1) Studies were designed to test receptor specificity, correlation of sensitivity to LHRH receptor expression and initial efficacy kinetics in vitro by comparing targeted kinetics to untargeted kinetics. […] Cytotoxicity was evaluated as IC50 value for each cell line.
(§2) Cell cultures were prepared in 96 well plates using 10,000 cells/well and were allowed to attach for 48 hours. […] Incubations were conducted for 24 h at 37° C. Cell viability was determined using formazan conversion assays (MTT assays). Controls contained USP saline or 0.1% TritonX-100™ as reference for 0 and 100% cell death, respectively.
(§3) Data were processed and analyzed using Graph Pad Prizm 4™ software (Graph Pad Prizm, Inc). Statistical analysis for significance was determined by a two-tailed Student's T-test.

[3] = tested on: OVCAR-3 ovarian cancer cell line; conditions: read-out: Cytotoxicity evaluated as IC50 value; OVCAR-3, 24 h at 37° C., MTT
Protocol: as §1, §2, §3

[4] = tested on: AN3-CA human endometrial cancer cell line; conditions: read-out: Cytotoxicity evaluated as IC50 value, 24 h at 37° C., MTT
Protocol: as §1, §2, §3

[5] = tested on: SKOV-3 LHRH receptor negative ovarian cancer cell line; conditions: read-out: Cytotoxicity evaluated as IC50 value, 24 h at 37° C., MTT
Protocol: as §1, §2, §3

[6] = tested on: PC-3 prostate cancer cell line; conditions: read-out: Cytotoxicity evaluated as IC50 value; PC-3, 24 h at 37° C., MTT
Protocol: as §1, §2, §3

[7] = tested on: LNCaP prostate cancer cell line; conditions: read-out: Cytotoxicity evaluated as IC50 value, 24 h at 37° C., MTT
Protocol: as §1, §2, §3

`N.N.[Cl][Pt][Cl]` [cisplatinum, reference compound] was tested, and the “Sensitivity of cell line to the drug” value ([1]; MDA-MB-231, multi drug resistant) was “insensitive”.
In the case of KFAKFAKKFAKFAKKFAKQHWSYGLRPG [EP-100], the IC50 [2] is reported as 0.8 µM, the IC50 [3] is reported as 3 µM and the IC50 [4] is reported as 3.3 µM. For the same compound, the IC50 [5] was > 10 µM, the IC50 ([1]; MDA-MB-231 (ER, Her2/neu, PR negative, multi drug resistant), 24 h at 37° C., MTT, read-out: Cytotoxicity evaluated as IC50 value) was 5.5 µM and the IC50 [6] was 5.5 µM. The IC50 [7] was 1.5 µM.
